ChEMBL document CHEMBL4028852, “Design of a Chemical Probe for the Bromodomain and Plant Homeodomain Finger-Containing (BRPF) Family of Proteins” (J Med Chem, 2017)

Assays:
Kv4.3/KChIP2 = target: T1, Kv4.3/KChIP2 (Homo sapiens, UniProt Q9NS61+Q9UK17); assay: Inhibition of Kv4.3/KChIP2 (unknown origin) at 30 uM; assay type: protein-complex assay
T1 sequence (Q9UK17 whole entry): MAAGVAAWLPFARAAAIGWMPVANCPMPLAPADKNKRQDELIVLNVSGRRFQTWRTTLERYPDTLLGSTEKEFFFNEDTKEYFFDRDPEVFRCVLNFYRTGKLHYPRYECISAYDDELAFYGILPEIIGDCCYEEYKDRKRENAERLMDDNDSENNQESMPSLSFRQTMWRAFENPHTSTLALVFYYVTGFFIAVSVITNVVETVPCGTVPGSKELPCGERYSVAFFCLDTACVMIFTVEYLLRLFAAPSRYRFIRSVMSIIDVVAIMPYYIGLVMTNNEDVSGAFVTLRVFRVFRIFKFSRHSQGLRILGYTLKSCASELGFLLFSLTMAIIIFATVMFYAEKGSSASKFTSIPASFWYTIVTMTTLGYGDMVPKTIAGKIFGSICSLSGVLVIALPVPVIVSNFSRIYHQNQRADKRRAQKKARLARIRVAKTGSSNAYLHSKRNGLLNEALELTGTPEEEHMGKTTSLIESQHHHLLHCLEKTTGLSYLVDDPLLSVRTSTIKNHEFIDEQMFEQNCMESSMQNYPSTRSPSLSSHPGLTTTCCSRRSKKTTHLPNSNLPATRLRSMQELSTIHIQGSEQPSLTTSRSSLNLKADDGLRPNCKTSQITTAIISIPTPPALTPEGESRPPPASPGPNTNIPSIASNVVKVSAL
T1 sequence (Q9NS61 whole entry): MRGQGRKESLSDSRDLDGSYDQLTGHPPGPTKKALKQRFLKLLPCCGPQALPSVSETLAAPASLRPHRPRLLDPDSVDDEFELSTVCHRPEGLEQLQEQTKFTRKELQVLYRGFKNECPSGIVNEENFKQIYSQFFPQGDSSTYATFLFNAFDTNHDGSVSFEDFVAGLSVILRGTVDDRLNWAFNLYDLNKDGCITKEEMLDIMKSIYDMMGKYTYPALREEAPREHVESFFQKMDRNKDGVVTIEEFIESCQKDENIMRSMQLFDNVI

Kir2.1 = target: T2, Kir2.1 (Homo sapiens, UniProt P63252); assay: Inhibition of Kir2.1 (unknown origin) at 30 uM
T2 sequence (P63252 whole entry): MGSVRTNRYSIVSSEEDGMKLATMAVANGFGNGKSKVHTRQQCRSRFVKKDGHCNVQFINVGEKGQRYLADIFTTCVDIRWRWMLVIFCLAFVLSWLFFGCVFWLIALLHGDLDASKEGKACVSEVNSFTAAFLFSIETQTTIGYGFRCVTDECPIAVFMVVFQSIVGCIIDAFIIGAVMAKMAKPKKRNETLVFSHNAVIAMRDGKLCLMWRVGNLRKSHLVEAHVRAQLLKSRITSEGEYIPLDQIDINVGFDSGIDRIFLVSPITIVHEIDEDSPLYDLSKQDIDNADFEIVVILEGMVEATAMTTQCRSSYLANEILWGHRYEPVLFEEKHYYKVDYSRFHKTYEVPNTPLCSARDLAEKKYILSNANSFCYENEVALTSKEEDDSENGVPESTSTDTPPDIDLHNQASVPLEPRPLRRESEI

Cav1.2 = Cav1.2 (Homo sapiens, UniProt Q13936); assay: Inhibition of Cav1.2 (unknown origin) at 30 uM
Nav1.5 = Nav1.5 (Homo sapiens, UniProt Q14524); assay: Inhibition of Nav1.5 (unknown origin) at 30 uM
[1] = target: T3, ATPase family AAA domain-containing protein 2 (Homo sapiens, UniProt Q6PL18); assay: Inhibition of human ATAD2A (981 to 1108 residues) expressed in Escherichia coli BL21 after 1 hr by BROMOscan assay
T3 sequence (Q6PL18 whole entry): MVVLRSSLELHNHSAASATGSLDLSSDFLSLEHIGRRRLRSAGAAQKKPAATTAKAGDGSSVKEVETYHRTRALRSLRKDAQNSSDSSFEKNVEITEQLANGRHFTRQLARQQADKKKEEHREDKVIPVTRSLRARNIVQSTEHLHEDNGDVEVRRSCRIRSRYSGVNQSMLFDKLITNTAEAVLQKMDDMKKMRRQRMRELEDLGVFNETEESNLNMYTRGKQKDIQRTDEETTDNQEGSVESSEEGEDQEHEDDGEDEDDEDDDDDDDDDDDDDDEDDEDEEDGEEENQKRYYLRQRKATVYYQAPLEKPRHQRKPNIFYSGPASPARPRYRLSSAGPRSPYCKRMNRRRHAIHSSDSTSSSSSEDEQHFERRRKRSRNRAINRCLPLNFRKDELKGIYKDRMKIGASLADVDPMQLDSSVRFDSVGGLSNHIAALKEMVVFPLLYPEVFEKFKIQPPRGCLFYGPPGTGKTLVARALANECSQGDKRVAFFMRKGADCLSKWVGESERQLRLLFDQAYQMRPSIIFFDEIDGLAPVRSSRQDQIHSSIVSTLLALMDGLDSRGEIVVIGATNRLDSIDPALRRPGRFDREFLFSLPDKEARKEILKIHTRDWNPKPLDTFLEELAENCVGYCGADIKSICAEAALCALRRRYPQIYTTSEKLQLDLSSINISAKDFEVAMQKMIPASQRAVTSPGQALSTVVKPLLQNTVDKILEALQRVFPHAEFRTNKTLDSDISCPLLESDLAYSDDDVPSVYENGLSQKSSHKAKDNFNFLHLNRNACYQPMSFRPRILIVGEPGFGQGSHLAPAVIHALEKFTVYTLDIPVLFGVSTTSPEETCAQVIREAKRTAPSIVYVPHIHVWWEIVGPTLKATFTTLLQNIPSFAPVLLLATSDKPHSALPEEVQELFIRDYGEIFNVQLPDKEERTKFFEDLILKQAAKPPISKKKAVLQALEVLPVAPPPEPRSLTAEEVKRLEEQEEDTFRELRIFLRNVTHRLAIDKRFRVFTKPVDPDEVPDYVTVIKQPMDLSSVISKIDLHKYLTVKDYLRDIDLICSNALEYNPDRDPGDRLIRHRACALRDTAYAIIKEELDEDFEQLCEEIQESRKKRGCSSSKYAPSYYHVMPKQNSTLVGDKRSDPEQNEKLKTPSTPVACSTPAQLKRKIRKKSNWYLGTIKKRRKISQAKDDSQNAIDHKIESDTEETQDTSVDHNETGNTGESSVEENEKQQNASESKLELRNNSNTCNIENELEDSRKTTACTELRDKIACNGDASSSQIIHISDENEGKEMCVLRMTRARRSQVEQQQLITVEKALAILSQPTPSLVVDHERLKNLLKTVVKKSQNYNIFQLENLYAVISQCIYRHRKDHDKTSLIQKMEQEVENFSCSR

[2] = Apparent permeability across apical to basolateral side in human Caco2 cells at 10 uM after 2 hrs by LC-MS/MS analysis; assay type: ADME, cell-based; conditions: Caco-2

Chain of Cav1.2 (Q13936 whole entry): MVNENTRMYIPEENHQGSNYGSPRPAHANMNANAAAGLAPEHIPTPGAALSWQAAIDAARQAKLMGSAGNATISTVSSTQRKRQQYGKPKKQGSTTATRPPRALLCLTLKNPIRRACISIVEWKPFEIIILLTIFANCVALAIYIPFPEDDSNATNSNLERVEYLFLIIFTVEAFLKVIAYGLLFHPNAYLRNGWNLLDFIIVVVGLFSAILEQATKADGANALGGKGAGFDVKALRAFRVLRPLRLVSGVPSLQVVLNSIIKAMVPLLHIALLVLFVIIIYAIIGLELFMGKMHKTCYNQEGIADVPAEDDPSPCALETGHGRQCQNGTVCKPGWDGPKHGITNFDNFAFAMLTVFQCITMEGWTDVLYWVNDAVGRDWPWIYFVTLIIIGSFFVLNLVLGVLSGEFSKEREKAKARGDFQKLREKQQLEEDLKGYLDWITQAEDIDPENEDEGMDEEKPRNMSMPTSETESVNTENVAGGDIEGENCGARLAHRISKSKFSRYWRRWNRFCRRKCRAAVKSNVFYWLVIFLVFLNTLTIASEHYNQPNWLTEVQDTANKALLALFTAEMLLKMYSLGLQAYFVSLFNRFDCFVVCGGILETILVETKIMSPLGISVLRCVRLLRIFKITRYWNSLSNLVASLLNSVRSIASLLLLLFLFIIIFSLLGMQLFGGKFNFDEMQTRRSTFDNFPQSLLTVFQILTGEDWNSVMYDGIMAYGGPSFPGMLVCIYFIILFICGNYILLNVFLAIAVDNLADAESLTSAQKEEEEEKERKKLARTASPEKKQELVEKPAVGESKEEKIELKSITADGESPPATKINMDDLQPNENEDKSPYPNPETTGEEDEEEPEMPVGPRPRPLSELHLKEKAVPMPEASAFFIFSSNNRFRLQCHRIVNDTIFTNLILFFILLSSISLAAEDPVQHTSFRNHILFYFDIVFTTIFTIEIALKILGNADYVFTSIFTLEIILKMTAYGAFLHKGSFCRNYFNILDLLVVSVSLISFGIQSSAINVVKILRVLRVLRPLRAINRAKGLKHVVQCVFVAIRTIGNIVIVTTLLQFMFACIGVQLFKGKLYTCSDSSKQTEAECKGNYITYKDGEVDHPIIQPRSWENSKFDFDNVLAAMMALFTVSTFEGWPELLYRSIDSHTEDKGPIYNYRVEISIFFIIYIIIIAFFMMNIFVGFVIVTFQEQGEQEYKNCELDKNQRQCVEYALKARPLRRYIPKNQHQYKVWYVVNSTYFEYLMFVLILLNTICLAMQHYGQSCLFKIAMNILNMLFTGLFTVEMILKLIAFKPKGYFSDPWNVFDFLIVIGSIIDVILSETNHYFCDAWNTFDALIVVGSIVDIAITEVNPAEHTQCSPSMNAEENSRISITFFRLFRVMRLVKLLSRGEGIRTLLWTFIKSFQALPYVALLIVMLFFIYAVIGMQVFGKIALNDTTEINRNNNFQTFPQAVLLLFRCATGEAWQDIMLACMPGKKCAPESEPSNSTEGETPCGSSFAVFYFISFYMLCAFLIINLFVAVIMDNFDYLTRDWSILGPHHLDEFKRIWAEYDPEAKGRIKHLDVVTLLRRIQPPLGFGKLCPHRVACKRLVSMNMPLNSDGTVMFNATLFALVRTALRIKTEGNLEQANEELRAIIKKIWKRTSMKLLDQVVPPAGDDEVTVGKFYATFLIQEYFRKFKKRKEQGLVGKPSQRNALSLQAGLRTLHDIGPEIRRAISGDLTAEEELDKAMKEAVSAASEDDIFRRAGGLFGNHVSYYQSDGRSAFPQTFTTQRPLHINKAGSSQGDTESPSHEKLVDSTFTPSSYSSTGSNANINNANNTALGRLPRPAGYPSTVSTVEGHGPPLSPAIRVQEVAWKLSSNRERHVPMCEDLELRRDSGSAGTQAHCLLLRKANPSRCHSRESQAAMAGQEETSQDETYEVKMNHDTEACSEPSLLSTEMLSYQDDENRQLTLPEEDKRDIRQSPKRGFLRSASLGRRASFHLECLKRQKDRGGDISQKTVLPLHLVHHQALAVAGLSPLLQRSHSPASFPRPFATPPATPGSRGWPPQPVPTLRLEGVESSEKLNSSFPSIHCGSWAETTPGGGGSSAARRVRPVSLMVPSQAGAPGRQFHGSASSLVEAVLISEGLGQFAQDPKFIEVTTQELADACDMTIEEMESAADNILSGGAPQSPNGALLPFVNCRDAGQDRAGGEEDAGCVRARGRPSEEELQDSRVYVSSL
Chain of Nav1.5 (Q14524 whole entry, the tested form may be a part): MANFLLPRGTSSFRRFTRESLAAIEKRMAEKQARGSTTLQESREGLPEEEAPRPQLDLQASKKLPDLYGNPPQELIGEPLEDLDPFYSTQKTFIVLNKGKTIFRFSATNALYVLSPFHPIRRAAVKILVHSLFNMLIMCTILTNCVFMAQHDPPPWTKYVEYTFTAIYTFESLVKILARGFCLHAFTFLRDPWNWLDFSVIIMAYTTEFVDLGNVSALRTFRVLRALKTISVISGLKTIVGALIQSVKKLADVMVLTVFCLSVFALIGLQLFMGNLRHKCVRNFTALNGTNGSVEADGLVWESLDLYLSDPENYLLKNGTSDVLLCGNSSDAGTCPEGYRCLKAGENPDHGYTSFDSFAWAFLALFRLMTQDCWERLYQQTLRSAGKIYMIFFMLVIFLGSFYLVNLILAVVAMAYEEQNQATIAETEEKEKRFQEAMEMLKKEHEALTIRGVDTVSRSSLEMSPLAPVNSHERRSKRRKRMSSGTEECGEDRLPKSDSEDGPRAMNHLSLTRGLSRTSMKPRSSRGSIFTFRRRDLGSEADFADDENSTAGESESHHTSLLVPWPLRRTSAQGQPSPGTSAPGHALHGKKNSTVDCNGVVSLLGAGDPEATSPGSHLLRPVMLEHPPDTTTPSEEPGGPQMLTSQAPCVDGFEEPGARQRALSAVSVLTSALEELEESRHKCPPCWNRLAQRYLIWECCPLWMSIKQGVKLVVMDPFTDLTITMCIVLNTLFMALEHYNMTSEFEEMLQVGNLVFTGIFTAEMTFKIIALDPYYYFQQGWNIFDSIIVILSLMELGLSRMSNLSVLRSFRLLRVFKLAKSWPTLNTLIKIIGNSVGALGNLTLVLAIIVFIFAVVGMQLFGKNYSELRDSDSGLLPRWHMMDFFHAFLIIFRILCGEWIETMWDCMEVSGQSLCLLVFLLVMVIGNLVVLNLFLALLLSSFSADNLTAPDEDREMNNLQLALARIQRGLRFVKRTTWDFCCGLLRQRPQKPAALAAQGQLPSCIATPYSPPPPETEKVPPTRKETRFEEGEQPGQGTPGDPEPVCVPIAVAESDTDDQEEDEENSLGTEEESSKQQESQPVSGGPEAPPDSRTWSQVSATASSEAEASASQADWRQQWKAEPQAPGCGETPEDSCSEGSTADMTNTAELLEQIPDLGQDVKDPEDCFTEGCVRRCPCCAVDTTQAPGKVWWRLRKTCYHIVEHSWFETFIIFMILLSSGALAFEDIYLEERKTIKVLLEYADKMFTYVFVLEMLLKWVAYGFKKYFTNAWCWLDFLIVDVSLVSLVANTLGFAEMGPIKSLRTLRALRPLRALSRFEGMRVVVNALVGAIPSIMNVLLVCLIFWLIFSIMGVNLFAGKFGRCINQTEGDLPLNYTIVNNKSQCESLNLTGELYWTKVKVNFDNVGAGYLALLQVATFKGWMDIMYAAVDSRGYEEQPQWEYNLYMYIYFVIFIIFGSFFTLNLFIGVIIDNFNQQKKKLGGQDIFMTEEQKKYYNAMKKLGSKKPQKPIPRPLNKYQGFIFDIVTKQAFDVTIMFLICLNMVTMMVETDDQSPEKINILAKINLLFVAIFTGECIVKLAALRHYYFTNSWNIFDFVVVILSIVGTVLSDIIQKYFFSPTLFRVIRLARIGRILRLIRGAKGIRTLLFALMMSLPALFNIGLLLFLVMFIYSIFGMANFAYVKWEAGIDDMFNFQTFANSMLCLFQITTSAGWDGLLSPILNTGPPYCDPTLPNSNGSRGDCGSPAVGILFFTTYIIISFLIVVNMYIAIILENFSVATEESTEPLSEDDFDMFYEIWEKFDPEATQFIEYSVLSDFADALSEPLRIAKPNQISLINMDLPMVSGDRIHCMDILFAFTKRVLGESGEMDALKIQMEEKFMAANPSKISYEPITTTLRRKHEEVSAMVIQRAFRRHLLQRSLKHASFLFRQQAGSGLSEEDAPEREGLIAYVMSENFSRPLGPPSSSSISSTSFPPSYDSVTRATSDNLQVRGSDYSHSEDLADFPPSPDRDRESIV

COc1cc(C#N)ccc1S(=O)(=O)Nc1ccc2c(c1)cc(C)c(=O)n2C
inhibition at 30 µM (Kv4.3/KChIP2): < 40%
inhibition at 30 µM (Kir2.1): < 40%
inhibition at 30 µM (Cav1.2): < 40%
inhibition at 30 µM (Nav1.5): < 40%
IC50 [1]: > 100 µM
Papp A→B at 2 h, 10 µM [2]: 11 ×10⁻⁶ cm/s
